≈ marks a conversion by molar mass, not a printed value.
Columns and labels:
Vero = test: Cytotoxicity against african green monkey Vero cells after 72 hrs; type: cell-based; conditions: Chlorocebus sabaeus
[1] = system: Mycobacterium tuberculosis; test: Antitubercular activity against Mycobacterium tuberculosis H37Rv after 72 hrs by microplate alamar blue assay; type: functional
[2] = Selectivity index, ratio of IC50 for african green monkey Vero cells to MIC for Mycobacterium tuberculosis H37Rv by low oxygen recovery assay; type: functional
[3] = Selectivity index, ratio of IC50 for african green monkey Vero cells to MIC for Mycobacterium tuberculosis H37Rv by microplate alamar blue assay; type: functional
[4] = system: Mycobacterium tuberculosis; test: Antitubercular activity against Mycobacterium tuberculosis H37Rv after 28 hrs by low oxygen recovery assay; type: functional
Escherichia coli = test: Antimicrobial activity against Escherichia coli; type: functional
[5] = system: Mycolicibacterium smegmatis; test: Antimicrobial activity against Mycobacterium smegmatis; type: functional
Staphylococcus aureus = test: Antimicrobial activity against Staphylococcus aureus; type: functional
[6] = system: Mycobacterium tuberculosis; test: Antimicrobial activity against Mycobacterium tuberculosis Erdman; type: functional
[7] = system: Mycobacterium tuberculosis; test: Antitubercular activity against Mycobacterium tuberculosis H37Rv at pH 6 by microplate alamar blue assay; type: functional
[8] = Inhibition of CYP; type: ADME
[9] = system: Mycobacterium tuberculosis; test: Antitubercular activity against Mycobacterium tuberculosis H37Rv at pH 6.8 by microplate alamar blue assay; type: functional
Bacillus anthracis = test: Antimicrobial activity against Bacillus anthracis; type: functional
Candida albicans = test: Antimicrobial activity against Candida albicans; type: functional
[10] = system: Mycobacterium tuberculosis; test: Antitubercular activity against Mycobacterium tuberculosis Erdman infected in mouse J774A.1 cells; type: functional
[11] = Toxicity in po dosed BALB/c mouse assessed as maximum tolerated dose treated for 5 days; type: organism-based; conditions: in vivo
[12] = system: Mycobacterium tuberculosis; test: Antitubercular activity against Mycobacterium tuberculosis H37Rv at pH 6.8 by microplate alamar blue assay relative to control; type: functional

| Compound | IC50 (Vero) [µM] | MIC [1] [µM] | Selectivity Index [2] | Selectivity Index [3] | MIC [4] [µM] | other results |
| --- | --- | --- | --- | --- | --- | --- |
| CCOC(=O)c1cc(COc2ccc3ncccc3c2)on1 | > 128 | 7.4 (≈ 2.21 µg/mL) | >10 | >17.3 | 12.8 (≈ 3.82 µg/mL) |  |
| CCOC(=O)c1cc(COc2cc(C(F)(F)F)nc3c(C(F)(F)F)cccc23)on1 | > 128 | 0.9 (≈ 0.391 µg/mL) | >10.5 | >142.2 | 12.1 (≈ 5.25 µg/mL) | MIC (Escherichia coli): > 128 µM; MIC [5]: > 128 µM; MIC (Staphylococcus aureus): > 128 µM; MIC [6]: 1.74 µM (≈ 0.756 µg/mL); MIC [7]: 0.1 µM (≈ 0.0434 µg/mL); inhibition (INH) [8]: Not Active; MIC [9]: 0.9 µM (≈ 0.391 µg/mL); MIC (Bacillus anthracis): > 128 µM; MIC (Candida albicans): > 128 µM; EC90 [10]: 4.1 µM; EC99 [10]: 18.3 µM |
| CCOC(=O)c1cc(COc2ccnc3ccccc23)on1 | > 128 | 25.1 (≈ 7.49 µg/mL) |  | >5.1 | 11.3 (≈ 3.37 µg/mL) |  |
| NNC(=O)c1cc(COc2cc(C(F)(F)F)nc3c(C(F)(F)F)cccc23)on1 | > 128 | > 128 |  |  | > 128 |  |
| CC(=O)OCc1cc(COc2cc(C(F)(F)F)nc3c(C(F)(F)F)cccc23)on1 | > 128 | > 128 |  |  | > 128 |  |
| CCc1noc(-c2cc(COc3cc(C(F)(F)F)nc4c(C(F)(F)F)cccc34)on2)n1 | > 128 | > 128 |  |  | > 128 |  |
| CCOC(=O)c1cc(COc2cc(C(F)(F)F)c3nc(C(F)(F)F)cc(OCc4cc(C(=O)OCC)no4)c3c2)on1 | > 128 | 17.6 (≈ 10.6 µg/mL) | >8.2 | >7.3 | 15.6 (≈ 9.41 µg/mL) |  |
| CCOC(=O)c1cc(COc2cccc3cccnc23)on1 | > 128 | 39.8 (≈ 11.9 µg/mL) | >1 | >3.2 | 125 (≈ 37.3 µg/mL) |  |
| O=C(c1cc(COc2cc(C(F)(F)F)nc3c(C(F)(F)F)cccc23)on1)N1CCCCO1 | > 128 | > 128 |  |  | > 128 |  |
| CCCCCCOC(=O)c1cc(COc2cc(C(F)(F)F)nc3c(C(F)(F)F)cccc23)on1 | > 128 | 15.3 (≈ 7.5 µg/mL) | >4.8 | >8.4 | 26.7 (≈ 13.1 µg/mL) |  |
| O=C(OCc1ccccc1)c1cc(COc2cc(C(F)(F)F)nc3c(C(F)(F)F)cccc23)on1 | > 128 | 26.5 (≈ 13.2 µg/mL) | >2.5 | >4.8 | 50.7 (≈ 25.2 µg/mL) |  |
| O=C(OCCC(F)(F)F)c1cc(COc2cc(C(F)(F)F)nc3c(C(F)(F)F)cccc23)on1 | > 128 | 25 (≈ 12.6 µg/mL) | >4.3 | >5.1 | 29.9 (≈ 15 µg/mL) |  |
| CCCCOC(=O)c1cc(COc2cc(C(F)(F)F)nc3c(C(F)(F)F)cccc23)on1 | 106 | 0.9 (≈ 0.416 µg/mL) | >10.6 | >109.1 | 9.9 (≈ 4.58 µg/mL) |  |
| CCCOC(=O)c1cc(COc2cc(C(F)(F)F)nc3c(C(F)(F)F)cccc23)on1 | > 128 | 1.8 (≈ 0.807 µg/mL) | >4.9 | >71.2 | 26.1 (≈ 11.7 µg/mL) |  |
| CCOC(=O)c1cc(COc2ccc3ccc(C(F)(F)F)nc3c2)on1 | > 128 | 3.6 (≈ 1.32 µg/mL) | >5.9 | >25.6 | 21.6 (≈ 7.91 µg/mL) |  |
| CCOC(=O)c1cc(COc2ccc3cccnc3c2)on1 | 108 | 10.8 (≈ 3.22 µg/mL) | >2.7 | >9.9 | 40.3 (≈ 12 µg/mL) |  |
| CCOC(=O)c1cc(COc2cccc3ncccc23)on1 | > 128 | 35.1 (≈ 10.5 µg/mL) | >4.1 | >3.6 | 31.1 (≈ 9.28 µg/mL) |  |
| CCOC(=O)c1cc(COc2ccc3cc[nH]c3c2)on1 | > 128 | 8.6 (≈ 2.46 µg/mL) | >2.9 | >14.9 | 42.9 (≈ 12.3 µg/mL) |  |
| NC(=O)c1cc(COc2cc(C(F)(F)F)nc3c(C(F)(F)F)cccc23)on1 | > 128 | > 128 |  |  | > 128 |  |
| CCN(CC)C(=O)c1cc(COc2cc(C(F)(F)F)nc3c(C(F)(F)F)cccc23)on1 | 46.5 | > 128 |  |  | > 128 |  |
| O=C(O)c1cc(COc2cc(C(F)(F)F)nc3c(C(F)(F)F)cccc23)on1 |  |  |  |  |  | MIC (Escherichia coli): > 128 µM; MIC [5]: > 128 µM; MIC (Staphylococcus aureus): 22 µM (≈ 8.94 µg/mL); MIC [6]: > 128 µM; MIC [7]: 7.7 µM (≈ 3.13 µg/mL); MTD at 120 h [11]: 400 mg/kg; MIC [9]: > 128 µM; MIC (Bacillus anthracis): 32 µM (≈ 13 µg/mL); MIC (Candida albicans): > 128 µM; Activity [12]: 89% |
| OCc1cc(COc2cc(C(F)(F)F)nc3c(C(F)(F)F)cccc23)on1 | > 128 | > 128 |  |  | > 128 |  |
| CCOC(=O)c1cc(COc2ccc3ccccc3n2)on1 | > 128 | 103 (≈ 30.8 µg/mL) | >2 | >1.2 | 64 (≈ 19.1 µg/mL) |  |
| CCOC(=O)c1cc(COc2ccc([N+](=O)[O-])c(C(F)(F)F)c2)on1 | > 128 | 3.5 (≈ 1.26 µg/mL) | >2.1 | >36.6 | 62.2 (≈ 22.4 µg/mL) |  |
| NNC(=O)c1ccncc1 [ISONIAZID] |  |  |  |  |  | MIC [7]: 0.1 µM (≈ 0.0137 µg/mL); MIC [9]: 0.1 µM (≈ 0.0137 µg/mL) |
| OC(c1cc(C(F)(F)F)nc2c(C(F)(F)F)cccc12)C1CCCCN1 (configuration not stated) [MEFLOQUINE] |  | 13 (≈ 4.92 µg/mL) | 1.6 | 0.9 | 7 (≈ 2.65 µg/mL) |  |
| NC(=O)c1cnccn1 [PYRAZINAMIDE] |  |  |  |  |  | MIC [7]: 829 µM (≈ 102 µg/mL); MIC [9]: > 4000 µM |
| CO[C@H]1/C=C/O[C@@]2(C)Oc3c(C)c(O)c4c(O)c(c(/C=N/N5CCN(C)CC5)c(O)c4c3C2=O)NC(=O)/C(C)=C\C=C\[C@H](C)[C@H](O)[C@@H](C)[C@@H](O)[C@@H](C)[C@H](OC(C)=O)[C@@H]1C [RIFAMPIN] |  | 0.1 (≈ 0.0823 µg/mL) |  |  | 2 (≈ 1.65 µg/mL) | MIC [9]: 0.1 µM (≈ 0.0823 µg/mL) |

From ChEMBL document CHEMBL1157741, “Synthesis and antituberculosis activity of novel mefloquine-isoxazole carboxylic esters as prodrugs” (Bioorg Med Chem Lett, 2010)
